Measured values from US20080125495A1, “Ameliorant For Renal Insufficiency” (MEIJI DAIRIES CORPORATION, priority 2004, published 2008).

Tested on: diabetes model rats
Experiment: Renal dysfunction parameters in STZ-induced diabetes model rats (kidney weight, serum creatinine, serum urea nitrogen, MDA in kidney)
Assay type: in vivo, SD rats
Description: To 8 weeks old male SD rats, 50 mg/kg of STZ (streptozotocin, manufactured by Wako Pure Chemical Industries, Ltd.) was intraperitoneally administered, thereby inducing diabetes. The diabetes model rats were divided into four groups: as therapeutic groups, 2,4,4-trimethyl-3(15-hydroxypentadecyl)-2-cyclohexen-1-one ([…]) synthesized by a method described in JP-A-2000-297034 was intraperitoneally administered once a day continuously for 4 or 8 weeks; and as controls, a non-therapeutic group with diabetes alone (Diabetic Control) and a control group without treatment were prepared. After 4 or 8 weeks, serum and both kidneys were removed from the rats. The right kidney was stored in a frozen state and the left kidney was subjected to formalin fixation.
Increase of kidney weight, elevation of serum creatinine level, and increase of MDA in kidney may be observed by renal dysfunction caused by diabetes.

[1] = 2 mg/kg i.p. once a day, 4 weeks after STZ administration
[2] = 2 mg/kg i.p. once a day, 8 weeks after STZ administration
[3] = 8 mg/kg i.p. once a day, 4 weeks after STZ administration
[4] = 8 mg/kg i.p. once a day, 8 weeks after STZ administration
[5] = 8 mg/kg, eighth week after STZ administration
[6] = 8 mg/kg, fourth week after STZ administration

For `CC1=C(CCCCCCCCCCCCCCCO)C(C)(C)CCC1=O` [Compound 1, 2,4,4-trimethyl-3(15-hydroxypentadecyl)-2-cyclohexen-1-one], the “increase of MDA in kidney (in words)” value (2 mg/kg) was “markedly suppressed”, the Serum creatinine [1] was 2.354 ± 0.254 mg/dL and the Serum urea nitrogen [1] was 51.00 ± 3.78 mg/dL. It also gave a Weight of kidney [1] of 1.33 ± 0.05 g, a Serum creatinine [2] of 2.504 ± 0.253 mg/dL and a Serum urea nitrogen [2] of 60.78 ± 5.34 mg/dL. For the same molecule, the Weight of kidney [2] was 1.59 ± 0.04 g, the “elevation of serum creatinine level (in words)” value (4 mg/kg, eighth week after STZ administration) was “tendency of the suppression” and the “increase of MDA in kidney (in words)” value (8 mg/kg) was “markedly suppressed”. It also gave a Serum creatinine [3] of 1.004 ± 0.118 mg/dL, a Serum urea nitrogen [3] of 41.76 ± 3.60 mg/dL and a Weight of kidney [3] of 1.27 ± 0.07 g. For the same molecule, the Serum creatinine [4] was 1.836 ± 0.228 mg/dL, the Serum urea nitrogen [4] was 53.69 ± 2.97 mg/dL and the Weight of kidney [4] was 1.33 ± 0.05 g. For the same molecule, the “elevation of serum creatinine level (in words)” value [5] was “markedly suppressed”, the “increase of kidney weight (in words)” value [5] was “markedly suppressed” and the “elevation of serum creatinine level (in words)” value [6] was “markedly suppressed”. The “elevation of serum urea nitrogen (in words)” value [6] was “markedly suppressed” and the “increase of kidney weight (in words)” value (rats to which the compound was administered, fourth week after STZ administration) was “suppressed”.
